Values joined by “and” are separate entries in the source; they are usually repeats but may differ in a detail not shown here. Identical values can stand only once. Counter-ions that a name gives are not always drawn. Like-named read-outs stand apart in the source and are kept apart here.
Legend:
[1] = test system: Photobacterium phosphoreum; details: IC50-values, established assay; cited from earlier work
[2] = test system: 11 different microbial strains; details: for Toxic fingerprint: MTC value, Mean: mean of all 11 MTC values
Experimental: (§1) • dispense 150 μl of growth medium with indicator in each well • add a concentration gradient of the chemical to be tested to rows B-H in a MARA plate (i.e. an indicator device according to the present invention) • incubate for 16 h • read absorbance values; and • analyse with software.
(§2) Microbial responses to different chemicals was estimated by kinetic measurements of their growth using the Labsystem automated IEMS reader. A computer software that could monitor incubation temperatures, reading intervals, and automatically transfer OD data to a computer was developed. A growth medium containing 0.05% peptone, 0.011% bromothymol blue (BTB), 1% sodium chloride and 0.3% glucose was added to all wells. The glucose acts as a carbon source, and during growth the microorganism will break down the glucose and produce acids, that will turn the initially blue indicator to yellow. Each microplate contains 12 columns and 8 rows, and thus in each plate, 11 lyophilized microbial strains were used (one for each column, the 12th column was used as negative control). […] In order to avoid drying out of the plates during the incubation, one drop of sterile mineral oil was added to each well. The plate was then incubated in the IEMS spectrophotometer and the absorbance value from each well was measured every second hour during 48 h.
(§3) The overall toxicity of the chemical compound can be described either as the mean of all 11 MTC values (shown in column 12), or as the minimum value for all 11 microbial strains used in the assay (marked with bold in the table).
Concentrations are given in mg/ml.

E. coli = details: IC50-values, established assay; cited from earlier work
Daphnia = details: IC50-values, established assay; cited from earlier work
[3] = test system: JG4 (strain of marine origin); details: Microbial Toxic Concentration; incubation time 16 h
Experimental: as §1, §2, §3

[4] = test system: Aeromonas hydriphila HG3 (RV 5.1); details: Microbial Toxic Concentration, incubation time 16 h
Experimental: as §1, §2, §3

[5] = test system: Saccaromyces ceriviciae (bakers yeast); details: Microbial Toxic Concentration, incubation time 16 h
Experimental: as §1, §2, §3

[6] = test system: JG2 (strain of marine origin); details: Microbial Toxic Concentration, incubation time 16 h
Experimental: as §1, §2, §3

ObanF = details: Microbial Toxic Concentration; incubation time 16 h
Experimental: as §1, §2, §3

[7] = test system: JG1 (strain of marine origin); details: Microbial Toxic Concentration, incubation time 16 h
Experimental: as §1, §2, §3

[8] = test system: JG3 (strain of marine origin); assay: MARA indicator device toxic fingerprint, microorganism no. 3; details: Microbial Toxic Concentration; incubation time 16 h
Experimental: as §1, §2, §3

E. coli MZ 480 = assay: MARA indicator device toxic fingerprint, microorganism no. 8; details: Microbial Toxic Concentration, incubation time 16 h
Experimental: as §1, §2, §3

[9] = test system: Staphylococcus epidermidis (Karin12); assay: MARA indicator device toxic fingerprint, microorganism no. 11; details: Microbial Toxic Concentration, incubation time 16 h
Experimental: as §1, §2, §3

microorganism no. 7 = assay: MARA indicator device toxic fingerprint, microorganism no. 7; details: Microbial Toxic Concentration, incubation time 16 h
Experimental: as §1, §2, §3

[10] = test system: β-proteobacterium A22 (Kalmar 200); assay: MARA indicator device toxic fingerprint, microorganism no. 5; details: Microbial Toxic Concentration, incubation time 16 h
Experimental: as §1, §2, §3

[11] = 11 microbial strains (panel, species not named)
[12] = MTC value of the strain showing the highest sensitivity
[13] = mean MTC for the 11 microbial strains

| SMILES | Inhibitory concentrations by method: Microtox [1] [mg/mL] | Inhibitory concentrations by method: E. coli (E. coli) [mg/mL] | Inhibitory concentrations by method: Daphnia (Daphnia) [mg/mL] | Toxic fingerprint: MTC value for microorganism no. 4 [3] | Toxic fingerprint: MTC value for microorganism no. 6 [4] | Toxic fingerprint: MTC value for microorganism no. 10 [5] | Toxic fingerprint: MTC value for microorganism no. 2 [6] | Toxic fingerprint: MTC value for microorganism no. 9 (ObanF) | Toxic fingerprint: MTC value for microorganism no. 1 [7] | Toxic fingerprint: MTC value for microorganism no. 3 [8] | Toxic fingerprint: MTC value for microorganism no. 8 (E. coli MZ 480) | Toxic fingerprint: MTC value for microorganism no. 11 [9] | Toxic fingerprint: MTC value for microorganism no. 7 (microorganism no. 7) | Toxic fingerprint: MTC value for microorganism no. 5 [10] | Toxic fingerprint: MTC value, Mean [2] | Inhibitory concentrations by method: MARA MTCmin [2, 12] [mg/mL] | Inhibitory concentrations by method: MARA MTCmean [2, 13] [mg/mL] | other results |
| --- | --- | --- | --- | --- | --- | --- | --- | --- | --- | --- | --- | --- | --- | --- | --- | --- | --- | --- |
| OCCO [Ethylene Glycol] | 167.064 | 270.945 | 74.625 | – | – | – | – | – | – | – | – | – | – | – | – | – | – | Inhibitory concentrations by method: MARA MTCmin [2]: 11.775 mg/mL; Inhibitory concentrations by method: MARA MTCmean [2, 11]: 28.400 mg/mL |
| [N-]=[N+]=[N-] [Sodium Azide] | – | – | – | 0.088 | 0.082 | 0.106 | 0.045 | 2.000 | 0.025 | 0.056 | 0.592 | 0.146 | 0.126 | 0.054 | 0.111 | – | – | – |
| [Cl-].[K+] [Potassium Chloride] | – | – | – | 17.000 | 27.100 | 16.000 | 29.400 | 65.400 | 28.200 | 10.600 | 62.300 | 31.300 | 67.300 | 20.100 | 29.800 | – | – | – |
| CN1[C@@H]2CC[C@H]1CC(OC(=O)C(CO)c1ccccc1)C2.CN1[C@@H]2CC[C@H]1CC(OC(=O)C(CO)c1ccccc1)C2.O=S(=O)(O)O (stereo partly drawn) [Atropin Sulphate] | – | 56.294 | 0.347 | – | – | – | – | – | – | – | – | – | – | – | – | – | – | – |
| Cc1ccccc1C(OCCN(C)C)c1ccccc1 (stereo not drawn) [Orphenadrin HCl] | – | – | – | – | – | – | – | – | – | – | – | – | – | – | – | – | – | Toxic fingerprint: MTC value, Mean ([2]; HCl): 0.131 and 0.146 |
| Cn1c(=O)c2c(ncn2C)n(C)c1=O [Caffeine] | 2.129 | 15.426 | 0.158 | – | 2.190 | 0.790 | 1.010 | – | – | – | 3.430 | 6.060 | 2.930 | 0.973 | 2.250 | 0.788 | 2.085 | Toxic fingerprint: MTC value for microorganism no. 6 ([4]; listed as Coffein): 1.300; Toxic fingerprint: MTC value for microorganism no. 10 ([5]; listed as Coffein): 0.785; Toxic fingerprint: MTC value for microorganism no. 2 ([6]; listed as Coffein): 1.080; Toxic fingerprint: MTC value for microorganism no. 8 (E. coli MZ 480; listed as Coffein): 3.500; Toxic fingerprint: MTC value for microorganism no. 11 ([9]; listed as Coffein): 2.310; Toxic fingerprint: MTC value for microorganism no. 7 (microorganism no. 7; listed as Coffein): 1.510; Toxic fingerprint: MTC value for microorganism no. 5 ([10]; listed as Coffein): 3.550; Toxic fingerprint: MTC value, Mean ([2]; listed as Coffein): 1.920 |
| [Cl-].[Cl-].[Mg+2] [Magnesium Chloride] | – | – | – | 7.500 | 13.500 | 22.700 | 9.660 | 8.830 | 28.800 | 7.420 | 24.100 | 4.580 | 12.100 | 14.800 | 13.900 | – | – | – |
| C[C@H]1O[C@@H](O[C@H]2[C@@H](O)C[C@H](O[C@H]3[C@@H](O)C[C@H](O[C@H]4CC[C@@]5(C)[C@H](CC[C@@H]6[C@@H]5C[C@@H](O)[C@]5(C)[C@@H](C7=CC(=O)OC7)CC[C@]65O)C4)O[C@@H]3C)O[C@@H]2C)C[C@H](O)[C@@H]1O [Digoxin] | 1.129 | – | 0.192 | 0.942 | 0.531 | 2.510 | 0.937 | 0.201 | 1.040 | 0.481 | 0.310 | 0.104 | 0.921 | 0.927 | 0.8 and 0.770 | 0.104 | 0.770 | – |
| O=[N+]([O-])[O-].O=[N+]([O-])[O-].[Ba+2] [Barium nitrate] | 29.318 | – | 0.208 | 5.620 | 0.713 | 0.453 | 0.205 | 1.490 | 2.520 | 0.908 | 1.360 | 0.466 | 1.110 | 1.090 | 1.420 | 0.453 | 1.420 | mean toxicity levels (MTC values) ([2]; text to FIG. 7): 1.4 mg/L |
| C=CC(N)=O [Acryl amide] | – | – | – | 2.100 and 2.510 | 2.480 and 2.810 | 6.620 and 6.970 | 2.440 and 1.810 | 13.900 and 11.000 | 0.965 and 0.853 | 4.280 and 3.370 | 17.700 and 23.300 | 8.300 and 10.300 | – | 5.740 and 3.240 | 4.700 and 4.690 | – | – | Toxic fingerprint: MTC value for microorganism no. 1 ([7]; listed as acrylamid): 0.9; Toxic fingerprint: MTC value for microorganism no. 8 (E. coli MZ 480; listed as acrylamid): 20 |
| Oc1ccccc1 [Phenol] | 0.133 | 2.258 | 0.007 | – | – | – | – | – | – | – | – | – | – | – | – | – | – | Inhibitory concentrations by method: MARA MTCmin [2]: 0.412 mg/mL; Inhibitory concentrations by method: MARA MTCmean [2, 11]: 0.831 mg/mL |
| CSc1ccc2c(c1)N(CCC1CCCCN1C)c1ccccc1S2 (stereo not drawn) [Tioridazin HCl] | – | – | – | – | 0.027 | 0.014 | 0.017 | – | – | – | 0.006 | 0.006 | 0.042 | 0.029 | 0.028 | 0.006 | 0.028 | – |

Source: US8551921B2, “Method for determining the toxicity of an environmental or chemical sample” (priority 2000, dated 2013)
